The values below come from patent EP1287826A1, “A crystalline form of the free base of Amlodipine” (Pfizer Limited, priority 2001, dated 2003).

Structures are written as SMILES.

The format of this data set is physicochemical. Here is the method: The stability of crystalline amlodipine free base bulk and amlodipine free base tablets was assessed by storing samples for up to 6 or 12 weeks at 25°C/60%RH, 40°C/75%RH and 50°C/20%RH. Changes were monitored using a stability-indicating HPLC method. Results were calculated by normalised peak area (npa). Degradants were identified by comparison of their relative retention times against impurity standards.

Take `CCOC(=O)C1=C(COCCN)NC(C)=C(C(=O)OC)C1c1ccccc1Cl` (stereo not shown) [crystalline amlodipine free base, 2-[(2-aminoethoxy)]-methyl-4-(2-chlorophenyl)-3-ethoxycarbonyl-5-methoxycarbonyl-6-methyl-1,4-dihydropyridine]: the stability result was “stability was demonstrated”.
